Results as given in US20250129135A1, “Multi-Agonist and Use Thereof” (priority 2021, published 2025).
Starred links: 1 amine or outer side, 2 acyl side, 3 side chain; linkers in the order of their positions; H or OH if unused. Non-standard residues stand in square brackets, D forms with d. Residues, ends and D or L forms follow the SMILES beside them. Groups on a side chain read outwards from the residue. *: point of attachment. C20 diacid = O=C(O)CCCCCCCCCCCCCCCCCCC(=O)*; γGlu = O=C(O)[C@H](CCC(=O)[*:2])N[*:1]; αMeF = C[C@](N)(Cc1ccccc1)C(=O)O; αMeL = CC(C)C[C@](C)(N)C(=O)O; AEEA = NCCOCCOCC(=O)O; Ac3c = NC1(C(=O)O)CC1; Aib = CC(C)(N)C(=O)O

Key:
Human GCG R = target: T1, Human GCG R (Homo sapiens, UniProt P47871); assay: cAMP (HTRF) activity in HEK-293 cells stably overexpressing human GCG receptor; format: cell-based; details: EC50 of human GCG / EC50 of compound
T1 construct: expressed in transfected cells; host or cells: HEK-293
Protocol: (§1) By measuring the cAMP signal response levels of the aforementioned cells, the agonistic activity of individual compound towards the corresponding receptor was determined. The intracellular cAMP content was measured using reagent kit available from Cisbio Corp. based on HTRF (homogeneous time-resolved fluorescence) technology.
(§2) The cell fluid was transferred to 10 ml of HBSS for resuspension, and centrifuged at 1000 rpm for 5 minutes at room temperature.
(§3) 10 μL cell suspension was added to each well in the 384 well plate. […] Using the ECHO liquid transfer system, 100 nL of the prepared compound solution was added to the corresponding cell suspensions in the 384 well plate, rotated and shaken at 1000 rpm for 1 minute to mix evenly, and then incubated at room temperature for 60 minutes. 10 μL of detection reagent was added to each well after drug incubation was completed, and incubation was performed in the kit at room temperature for 60 minutes. […] GraphPad Prism 5 plotting software was used to create compound concentration response curves and EC50 (nM) values was calculated.

RIN-m5F cells = format: cell-based, rat; details: for Rel. A (Relative Activity) on RIN-m5F: relative to GLP-1(7-37)
Protocol: This experiment measured the cAMP level produced by the compound on RIN-mF cells.
Frozen […] cells were placed in a 37° C. constant temperature water bath for rapid thawing and recovery. The cell solution was transferred to 10 ml of HBSS for resuspension, and centrifuged at 1000 rpm for 5 minutes at room temperature.
(§4) 10 μL cell suspension was added to each well in the 384 well plate. […] Using the ECHO liquid transfer system, 100 nL of the prepared compound solution was added to the corresponding cell suspensions in the 384 well plate, rotated and shaken at 1000 rpm for 1 minute to mix evenly, and then incubated at room temperature for 60 minutes. 10 μL of detection reagent was added to each wells after drug incubation was completed, and incubation was performed for 60 minutes.

[1] = tested on: human primary liver cells; format: cell-based; details: for Rel. A (Relative Activity) on human primary liver cells: relative to GCG
Protocol: The cAMP levels produced by compounds on human primary liver cells were determined in this experiment. Human primary liver cells were purchased from Lonza (cell product number HUCPG).
Frozen human primary liver cells were placed in a 37° C. constant temperature water bath for rapid thawing and recovery. The cell solution was transferred to 10 ml of HBSS for resuspension, and centrifuged at 1000 rpm for 5 minutes at room temperature.
as §4, with “well” for “wells”

Human GIP R = target: T2, Human GIP R (Homo sapiens, UniProt P48546); assay: cAMP (HTRF) activity in CHO cells stably overexpressing GIP receptor; format: cell-based; details: for Human GIP R Rel. A (Relative Activity): EC50 of human GIP / EC50 of compound; for EC50: stable transfected cell cAMP activity, at least 3 independent tests
T2 construct: expressed in transfected cells; host or cells: CHO
T2 sequence (P48546 22-466): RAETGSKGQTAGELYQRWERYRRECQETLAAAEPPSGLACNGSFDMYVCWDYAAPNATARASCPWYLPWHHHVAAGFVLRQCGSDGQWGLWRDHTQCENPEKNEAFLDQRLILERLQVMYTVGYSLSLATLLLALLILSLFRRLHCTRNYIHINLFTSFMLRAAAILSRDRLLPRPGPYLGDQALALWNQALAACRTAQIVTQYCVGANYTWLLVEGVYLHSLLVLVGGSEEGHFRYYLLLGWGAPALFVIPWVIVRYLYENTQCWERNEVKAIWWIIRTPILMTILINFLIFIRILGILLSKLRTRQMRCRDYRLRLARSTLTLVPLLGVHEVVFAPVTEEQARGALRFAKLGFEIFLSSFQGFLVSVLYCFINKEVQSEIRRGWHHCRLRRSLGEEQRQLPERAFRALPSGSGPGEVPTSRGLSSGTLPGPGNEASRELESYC
Protocol: as §1, §2, §3

3T3-L1 adipocytes = details: for Rel. A (Relative Activity) on 3T3-L1 adipocyte: relative to GIP
Protocol: Mouse 3T3-L1 precursor adipocytes can be induced to differentiate into mature adipocytes. […] After the cells became full and contacted with each other, DMEM differentiation medium containing 20% FBS, 0.5 mM IBMX, 0.4 ug/mL dexamethasone, and 5 ug/mL insulin was used to induce differentiation of 3T3-L1 adipocyte. After 5 days of induction and cultivation, DMEM medium containing […], 4 ug/ml insulin, and 10 uM rosiglitazone was used to continue induction and cultivation for 3 days. Then, DMEM medium containing 10% FBS was used to continue cultivation for 2-3 days to induce mature 3T3-L1 adipocytes.
The cAMP level produced by the compound on 3T3-L1 adipocytes was determined in this experiment. The tested compound solution was diluted step by step according to a concentration gradient of 3 times, to obtain a total of 10 series of concentration solutions. The solutions were added to induced mature 3T3-L1 adipocytes and incubated at room temperature for 60 minutes. 10 μL detection reagent in the kit was added to each well after drug incubation, and incubated at room temperature for another 60 minutes. […] GraphPad Prism 5 plotting software was used to create compound concentration-effect curves and calculation was performed.

Human GLP-1R = Human GLP-1R (Homo sapiens, UniProt P43220); assay: cAMP (HTRF) activity in HEK-293 cells stably overexpressing human GLP-1 receptor; format: cell-based; parameters: expressed in transfected cells; host or cells: HEK-293; details: for Human GLP-1R Rel. A (Relative Activity): EC50 of human GLP-1 (7-37) / EC50 of compound; for EC50: stable transfected cell cAMP activity, at least 3 independent tests
Protocol: as §1, §2, §3

T1 sequence (P47871 26-477): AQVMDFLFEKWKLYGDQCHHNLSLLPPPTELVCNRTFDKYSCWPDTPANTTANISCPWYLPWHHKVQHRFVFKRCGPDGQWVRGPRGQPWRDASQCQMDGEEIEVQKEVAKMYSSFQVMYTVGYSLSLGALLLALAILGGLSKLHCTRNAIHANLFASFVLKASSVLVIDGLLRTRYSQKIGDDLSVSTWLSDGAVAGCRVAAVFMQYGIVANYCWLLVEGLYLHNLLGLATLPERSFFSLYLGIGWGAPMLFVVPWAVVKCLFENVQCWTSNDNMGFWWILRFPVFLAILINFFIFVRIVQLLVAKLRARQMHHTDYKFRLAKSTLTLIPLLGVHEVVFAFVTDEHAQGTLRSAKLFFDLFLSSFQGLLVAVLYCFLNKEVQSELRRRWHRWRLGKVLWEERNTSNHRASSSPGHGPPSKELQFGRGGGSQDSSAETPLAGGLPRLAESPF
Chain of Human GLP-1R (P43220 24-463): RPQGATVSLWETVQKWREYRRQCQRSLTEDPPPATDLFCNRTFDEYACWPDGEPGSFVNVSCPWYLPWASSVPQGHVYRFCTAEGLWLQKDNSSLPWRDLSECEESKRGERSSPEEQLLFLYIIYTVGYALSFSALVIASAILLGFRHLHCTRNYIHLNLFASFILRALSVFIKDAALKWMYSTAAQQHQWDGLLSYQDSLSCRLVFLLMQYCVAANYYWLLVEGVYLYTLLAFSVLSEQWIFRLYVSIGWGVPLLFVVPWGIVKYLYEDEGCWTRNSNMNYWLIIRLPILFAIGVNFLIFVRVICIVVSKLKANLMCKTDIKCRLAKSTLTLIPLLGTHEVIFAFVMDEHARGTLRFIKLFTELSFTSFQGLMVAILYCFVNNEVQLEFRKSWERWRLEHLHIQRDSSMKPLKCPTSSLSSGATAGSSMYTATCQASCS

| SMILES | Human GCG R Rel. A (Relative Activity) (Human GCG R) | EC50 (RIN-m5F cells) | Rel. A (Relative Activity) on RIN-m5F (RIN-m5F cells) | EC50 [1] | Rel. A (Relative Activity) on human primary liver cells [1] | Human GIP R Rel. A (Relative Activity) (Human GIP R) | EC50 (Human GIP R) | EC50 (3T3-L1 adipocytes) | Rel. A (Relative Activity) on 3T3-L1 adipocyte (3T3-L1 adipocytes) | Human GLP-1R Rel. A (Relative Activity) (Human GLP-1R) | EC50 (Human GLP-1R) |
| --- | --- | --- | --- | --- | --- | --- | --- | --- | --- | --- | --- |
| CC[C@H](C)[C@H](NC(=O)[C@H](Cc1ccccc1)NC(=O)[C@H](C)NC(=O)C(C)(C)NC(=O)[C@H](CCC(N)=O)NC(=O)[C@H](C)NC(=O)[C@H](CCCCNC(=O)COCCOCCNC(=O)COCCOCCNC(=O)CC[C@H](NC(=O)CCCCCCCCCCCCCCCCCCC(=O)O)C(=O)O)NC(=O)[C@H](CCCCN)NC(=O)[C@H](CC(=O)O)NC(=O)[C@H](CC(C)C)NC(=O)[C@](C)(CC(C)C)NC(=O)[C@@H](NC(=O)[C@H](CO)NC(=O)[C@H](Cc1ccc(O)cc1)NC(=O)[C@H](CC(=O)O)NC(=O)[C@H](CO)NC(=O)[C@@H](NC(=O)[C@](C)(Cc1ccccc1)NC(=O)[C@@H](NC(=O)CNC(=O)[C@H](CCC(N)=O)NC(=O)C(C)(C)NC(=O)[C@@H](N)Cc1ccc(O)cc1)[C@@H](C)O)[C@@H](C)O)[C@@H](C)CC)C(=O)N[C@@H](CCC(=O)O)C(=O)N[C@@H](Cc1ccccc1)C(=O)N[C@@H](CC(C)C)C(=O)N[C@@H](CC(C)C)C(=O)N[C@@H](CCC(=O)O)C(=O)N[C@@H](CO)C(=O)NC(C)(C)C(=O)N1CCC[C@H]1C(=O)N[C@@H](CO)C(=O)N[C@@H](CO)C(=O)NCC(=O)N[C@@H](C)C(=O)N1CCC[C@H]1C(=O)N1CCC[C@H]1C(=O)NC1(C(=O)N[C@@H](CO)C(N)=O)CC1 [Compound 28] (H-Y[Aib]QGT[αMeF]TSDYSI[αMeL]LDKK([AEEA-AEEA-γGlu-C20 diacid])AQ[Aib]AFIEFLLES[Aib]PSSGAPP[Ac3c]S-NH2) | 37.01% | 0.784 nM | 131.63% | 5.21 nM | 74.74% | 1645.45% | 0.011 nM | 9.85 nM | 38.61% | 183.33% | – |
| CC[C@H](C)[C@H](NC(=O)[C@H](Cc1ccccc1)NC(=O)[C@H](C)NC(=O)C(C)(C)NC(=O)[C@H](CCC(N)=O)NC(=O)[C@H](C)NC(=O)[C@H](CCCCNC(=O)COCCOCCNC(=O)COCCOCCNC(=O)CC[C@H](NC(=O)CCCCCCCCCCCCCCCCCCC(=O)O)C(=O)O)NC(=O)[C@H](CCCCN)NC(=O)[C@H](CC(=O)O)NC(=O)[C@H](CC(C)C)NC(=O)[C@H](Cc1ccccc1)NC(=O)[C@@H](NC(=O)[C@H](CO)NC(=O)[C@H](Cc1ccc(O)cc1)NC(=O)[C@H](CC(=O)O)NC(=O)[C@H](CO)NC(=O)[C@@H](NC(=O)[C@](C)(Cc1ccccc1)NC(=O)[C@@H](NC(=O)CNC(=O)[C@H](CCC(N)=O)NC(=O)C(C)(C)NC(=O)[C@@H](N)Cc1ccc(O)cc1)[C@@H](C)O)[C@@H](C)O)[C@@H](C)CC)C(=O)N[C@@H](CCC(=O)O)C(=O)N[C@@H](Cc1ccc(O)cc1)C(=O)N[C@@H](CC(C)C)C(=O)N[C@@H](CC(C)C)C(=O)N[C@@H](CCC(=O)O)C(=O)N[C@@H](CO)C(=O)NC(C)(C)C(=O)N1CCC[C@H]1C(=O)N[C@@H](CO)C(=O)N[C@@H](CO)C(=O)NCC(=O)N[C@@H](C)C(=O)N1CCC[C@H]1C(=O)N1CCC[C@H]1C(=O)NC1(C(=O)N[C@@H](CO)C(N)=O)CC1 [Compound 29] (H-Y[Aib]QGT[αMeF]TSDYSIFLDKK([AEEA-AEEA-γGlu-C20 diacid])AQ[Aib]AFIEYLLES[Aib]PSSGAPP[Ac3c]S-NH2; N-terminus assumed) | 82.61% | 0.633 nM | 163.03% | 2.93 nM | 132.89% | 58.58% | – | 20.7 nM | 18.41% | 275.00% | 0.016 nM |
| CC[C@H](C)[C@H](NC(=O)[C@H](Cc1ccccc1)NC(=O)[C@H](C)NC(=O)C(C)(C)NC(=O)[C@H](CCC(N)=O)NC(=O)[C@H](C)NC(=O)[C@H](CCCCNC(=O)COCCOCCNC(=O)COCCOCCNC(=O)CC[C@H](NC(=O)CCCCCCCCCCCCCCCCCCC(=O)O)C(=O)O)NC(=O)[C@H](CCCCN)NC(=O)[C@H](CC(=O)O)NC(=O)[C@H](CC(C)C)NC(=O)[C@](C)(CC(C)C)NC(=O)[C@@H](NC(=O)[C@H](CO)NC(=O)[C@H](Cc1ccc(O)cc1)NC(=O)[C@H](CC(=O)O)NC(=O)[C@H](CO)NC(=O)[C@@H](NC(=O)[C@](C)(Cc1ccccc1)NC(=O)[C@@H](NC(=O)CNC(=O)[C@H](CCC(N)=O)NC(=O)C(C)(C)NC(=O)[C@@H](N)Cc1ccc(O)cc1)[C@@H](C)O)[C@@H](C)O)[C@@H](C)CC)C(=O)N[C@@H](CCC(=O)O)C(=O)N[C@@H](Cc1ccccc1)C(=O)N[C@@H](CC(C)C)C(=O)N[C@@H](CC(C)C)C(=O)N[C@@H](CCC(=O)O)C(=O)N[C@H](C(=O)NC(C)(C)C(=O)N1CCC[C@H]1C(=O)N[C@@H](CO)C(=O)N[C@@H](CO)C(=O)NCC(=O)N[C@@H](C)C(=O)N1CCC[C@H]1C(=O)N1CCC[C@H]1C(=O)NC1(C(=O)N[C@@H](CO)C(N)=O)CC1)[C@@H](C)O [Compound 30] (H-Y[Aib]QGT[αMeF]TSDYSI[αMeL]LDKK([AEEA-AEEA-γGlu-C20 diacid])AQ[Aib]AFIEFLLET[Aib]PSSGAPP[Ac3c]S-NH2; N-terminus assumed) | 32.95% | 0.878 nM | 117.54% | 7.83 nM | 49.73% | 1206.67% | 0.015 nM | 7.08 nM | 53.67% | 220.00% | 0.02 nM |
